From patent US4510085A, “Antihypertensive tetrapeptide amides” (G.D. Searle & Co., priority 1984, dated 1985) come the findings set out here.

Non-standard residues stand in square brackets, D forms with d. Residues, ends and D or L forms follow the SMILES beside them. No end group written: not given here. *: point of attachment. NH(2-adamantyl) = C1C2CC3CC1CC(C2)C3N*; 2Nal = N[C@@H](Cc1ccc2ccccc2c1)C(=O)O; Sta = CC(C)C[C@H](N)[C@@H](O)CC(=O)O; NEtPhe = CCN[C@@H](Cc1ccccc1)C(=O)O; Isovaleryl = CC(C)CC(=O)*

The test system of assay [1] is sodium depleted Rhesus monkeys. Description: Rhesus Monkey Blood Pressure Test. In kind it is in vivo. The protocol:
Rhesus monkeys were sodium depleted by means of a fruit diet in combination with intramuscular furosemide injections (0.5 mg per kg of body weight) given twice daily for four days. This procedure causes blood pressure to become dependent on plasma renin activity. J. Burton, R. J. Cody, Jr., A. J. Herd, and E. Haber, Proc. Natl. Acad. Sci. U. S. A., 77, 5476-5479 (1980). On the fifth day the animals were anesthetized with ketamine (100 mg administered intravenously). The femoral artery was cannulated for blood pressure measurement and a percutaneous venous cannula was inserted for test compound administration. The animals were allowed to recover from anesthesia and were restrained in a transparent plastic chair. […]

Another assay deals with Opiate receptor. Kind of assay: Opiate Receptor Binding. The note with it: rat brain membrane homogenates, tritium-labeled naloxone. The protocol: Opiate receptor binding of the compounds of this invention illustrated in the examples was tested by the following method.
A 2 ml portion of the homogenate is incubated at 25° with the test compound (10 mcM) and tritium-labeled naloxone (1.0 nM). After sixty minutes, samples were rapidly cooled on ice, collected over glass-fiber filters, washed with cold buffer, and solubilized by incubation with 1.0 ml of NCS tissue solubilizer. Samples were then prepared for counting in a liquid scintillation counter. Specific binding was calculated, with results expressed as percent inhibition at the test dose.

The next assay deals with T1, human renin (Homo sapiens, UniProt P00797).
T1 construct: tissue World Health Organization International Laboratory for Biological Standards (National Institute for Biological Standards and Control, London, England); host or cells: human kidney
T1 sequence (P00797 67-406): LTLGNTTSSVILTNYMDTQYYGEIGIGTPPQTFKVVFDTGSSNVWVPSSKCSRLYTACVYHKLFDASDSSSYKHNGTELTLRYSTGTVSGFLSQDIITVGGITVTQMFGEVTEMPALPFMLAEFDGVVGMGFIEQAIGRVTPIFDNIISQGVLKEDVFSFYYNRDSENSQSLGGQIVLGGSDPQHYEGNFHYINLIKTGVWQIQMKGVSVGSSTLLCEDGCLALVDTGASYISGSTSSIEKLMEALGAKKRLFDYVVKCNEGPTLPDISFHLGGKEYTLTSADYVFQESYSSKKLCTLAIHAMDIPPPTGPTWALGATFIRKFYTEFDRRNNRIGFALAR
Kind of assay: Inhibition of Human Renin. In kind it is biochemical. The note with it: angiotensin I formed by radioimmunoassay; considered active if inhibition was greater than 20%. The protocol: The renin inhibition activity of the compounds of this invention illustrated in the examples was tested by the following method.
International reference standard human renin, isolated from kidneys, was obtained from the World Health Organization International Laboratory for Biological Standards (National Institute for Biological Standards and Control, London, England). Renin activity is defined in "Goldblatt units" (GU), the quantity that, when injected directly into the blood stream of an unanesthetized dog, raises the direct mean femoral artery blood pressure by 30 mm Hg in about two minutes. E. Haas, L. Lewis, P. Scipione, and T. J. Koshy, Hypertension, 1, 112-117 (1979). Human angiotensinogen was used as an unisolated component of human blood plasma. The enzyme inhibition assay, see K. Poulsen, J. Burton, and E. Haber, Biochemistry, 12, 3877-3882 (1973), involved a two-hour incubation at 37° C. of the following final concentrations of reagents (0.25 ml total volume): 0.1 mGU/ml human renin; 0.05 ml human plasma; 6 mM disodium EDTA; 2.4 mM phenylmethylsulfonyl fluoride and 1.5 mM 8-hydroxyquinoline (angiotensinase inhibitors); 0.4 mg/ml bovine serum albumin; and 0.024 neomycin sulfate in 100 mM Tris-acetate buffer (pH 7.5). The enzymatic reaction was terminated by boiling the mixture for ten minutes. The quantity of angiotensin I formed was determined by radioimmunoassay, using the general method used in the angiotensin I radioimmunoassay kit of New England Nuclear.

Assay [2] concerns renal-ligated hypertensive rat. Description: Renal-ligated Hypertensive Rat Assay. The format is in vivo. Conditions: renal-ligated rats. The protocol:
Male Sprague Dawley rats aged 11 to 15 weeks old were used in this test. […] Test compounds were administered intra-arterially at a dose of 10 mg per kg of body weight, and blood pressure changes were monitored directly at 5, 10, and 15 minutes after injection.

The test system of another assay is Male Charles River mice. Description: Hot-plate Assay. The format is in vivo, mouse. The note with it: subcutaneous, dose active if 50% of the animals showed analgesia. The protocol:
(§1) The in vivo analgesic activity of the compounds of this invention illustrated in the examples was tested using the following hot-plate and writhing assays. Tyrosyl-N-(phenylpropyl)-D-alaninamide, a known analog of enkephalin, is active in these assays.
Male Charles River mice (COBS CD-1(ICR)BR) weighing 20 to 30 grams were used in this assay. Two groups of fourteen mice were placed individually in a restraining cylinder placed on a hot plate kept at 55° (±0.5°). The reaction time for each mouse to lick a foot or jump was measured three times at 20 minute intervals. Mice not responding within fifteen seconds were discarded. Twenty minutes after the last reaction experiment ten mice were given a dose of the test compound and ten were given 0.9% saline (each solution containing approximately 0.09 ml of a 1:1 mixture by volume of propylene glycol and polysorbate 80) subcutaneously. The response times of the animals were measured as before at 30, 60, 90, and 120 minute intervals after this injection. Mice not responding within 30 seconds were removed from the hot plate and given a response time of 30 seconds. […] The ED50 of each active test compound was then calculated. See N. B. Eddy, D. Leimbach, J. Pharmacol. and Exp. Therap., 107, 385-393 (1953).
Background: In hot-plate and tail-flick tests a longer latency is read as antinociception.

The test system of assay [3] is Male Charles River albino mice. Kind of assay: PBQ-Writhing Assay. The note with it: analgesia if writhes equal to or less than one-half the control median. In kind it is in vivo, mouse. The protocol:
as §1
Male Charles River albino mice (CD-1(ICR)BR) weighing 20 to 30 grams were used in this assay. Thirty minutes after subcutaneous or intragastric administration (0.1 ml per 10 g of body weight) or fifteen minutes after intracerebroventricular administration (5 mcl total volume), a 0.025% solution of phenylbenzoquinone (PBQ) was injected intraperitoneally (0.1 ml per 10 g of body weight). Five minutes later each mouse was placed in a glass beaker and the number of writhes occurring in the next ten minutes was counted. (A writhe consists of dorsoflexion of the back, extension of the hindlimbs, and strong contraction of the abdominal musculature.) The test compound was considered to have produced analgesia in a mouse if the number of writhes elicited by PBQ was equal to or less than one-half the median number of writhes recorded for the saline-treated control group of mice that day. Results were expressed as the number of mice out of a possible ten in which the test compound produced analgesia. […]
Background: Writhing tests count abdominal constrictions after an irritant is injected.

Regarding `C[C@H](CS)C(=O)N1CCC[C@H]1C(=O)O` [captopril], in assay [1] (0.1 mg per kg), the mean blood pressure result is given as “significantly lowered”.

On to `CCN[C@@H](Cc1ccccc1)C(=O)N[C@H](CCSC)C(=O)NCC(=O)N[C@@H](Cc1ccccc1)C(=O)NC1C2CC3CC(C2)CC1C3.Cl` (stereo partly drawn) [Example 15, N^α -ethyl-L-phenylalanyl-D-methionylglycyl-N-(2-adamantyl)-L-phenylalaninamide hydrochloride] (H-[NEtPhe][dM]GF-{NH(2-adamantyl)}), for which the “opiate receptor binding relative to prior art compounds of U.S. Pat. No. 4,273,704” value with Opiate receptor is “significantly lower opiate receptor binding”. Further, the renin inhibition activity entry on human renin is on record as “possess renin inhibition activity”.

For `CC(C)CC(=O)N[C@H](C(=O)N[C@H](C(=O)N[C@@H](CC(C)C)[C@@H](O)CC(=O)N[C@@H](C)C(=O)N[C@@H](CC(C)C)[C@@H](O)CC(=O)O)C(C)C)C(C)C` [Pepstatin] (Isovaleryl-VV[Sta]A[Sta]-OH), the plasma renin activity entry in assay [2] is given as “significantly reduced”. Further, the “mean arterial blood pressure” value in assay [2] (intra-arterial administration, significance P≤0.05) is recorded as “significantly reduced”. In addition, the renin inhibition activity result on human renin was “active”.

For “PHPFHFFVYK [RIP, prolylhistidylprolylphenylalanylhistidylphenylalanylphenylalanylvalyltyros yllysine]”, in assay [1] (1.0 mg per kg), the mean blood pressure entry is “significantly lowered”.

With `CSCC[C@@H](NC(=O)[C@@H](N)Cc1ccc2ccccc2c1)C(=O)NCC(=O)N[C@@H](Cc1ccccc1)C(=O)NC1C2CC3CC(C2)CC1C3.Cl` (stereo partly drawn) [Example 29, 3-(2-naphthalenyl)-L-alanyl-D-methionylglycyl-N-(2-adamantyl)-L-phenylalaninamide hydrochloride] (H-[2Nal][dM]GF-{NH(2-adamantyl)}), the “opiate receptor binding relative to prior art compounds of U.S. Pat. No. 4,273,704” value with Opiate receptor was “significantly lower opiate receptor binding”. On human renin, the renin inhibition activity result was “possess renin inhibition activity”.

With `C[C@@H](NC(=O)[C@@H](N)Cc1ccc(O)cc1)C(=O)NCCCc1ccccc1` [Tyrosyl-N-(phenylpropyl)-D-alaninamide], in the assay on Male Charles River mice, the “analgesic activity, hot-plate” value is listed as “active”. Moreover, in assay [3], the “analgesic activity, PBQ writhing” value is “active”.
